Measurements: patent US12295970B2, “Imidazoquinoline compounds and prodrugs thereof” (UNIVERSITY OF KANSAS, priority 2019, dated 2025)

Columns and labels:
hTLR8 = target: T1, hTLR8 (Homo sapiens, UniProt Q9NR97); test: SEAP reporter assay for hTLR-8 activity (HEK-Blue hTLR8 cells); type: cell-based
T1 construct: host or cells: HEK293 (HEK-Blue hTLR8)
T1 sequence (Q9NR97 27-1041): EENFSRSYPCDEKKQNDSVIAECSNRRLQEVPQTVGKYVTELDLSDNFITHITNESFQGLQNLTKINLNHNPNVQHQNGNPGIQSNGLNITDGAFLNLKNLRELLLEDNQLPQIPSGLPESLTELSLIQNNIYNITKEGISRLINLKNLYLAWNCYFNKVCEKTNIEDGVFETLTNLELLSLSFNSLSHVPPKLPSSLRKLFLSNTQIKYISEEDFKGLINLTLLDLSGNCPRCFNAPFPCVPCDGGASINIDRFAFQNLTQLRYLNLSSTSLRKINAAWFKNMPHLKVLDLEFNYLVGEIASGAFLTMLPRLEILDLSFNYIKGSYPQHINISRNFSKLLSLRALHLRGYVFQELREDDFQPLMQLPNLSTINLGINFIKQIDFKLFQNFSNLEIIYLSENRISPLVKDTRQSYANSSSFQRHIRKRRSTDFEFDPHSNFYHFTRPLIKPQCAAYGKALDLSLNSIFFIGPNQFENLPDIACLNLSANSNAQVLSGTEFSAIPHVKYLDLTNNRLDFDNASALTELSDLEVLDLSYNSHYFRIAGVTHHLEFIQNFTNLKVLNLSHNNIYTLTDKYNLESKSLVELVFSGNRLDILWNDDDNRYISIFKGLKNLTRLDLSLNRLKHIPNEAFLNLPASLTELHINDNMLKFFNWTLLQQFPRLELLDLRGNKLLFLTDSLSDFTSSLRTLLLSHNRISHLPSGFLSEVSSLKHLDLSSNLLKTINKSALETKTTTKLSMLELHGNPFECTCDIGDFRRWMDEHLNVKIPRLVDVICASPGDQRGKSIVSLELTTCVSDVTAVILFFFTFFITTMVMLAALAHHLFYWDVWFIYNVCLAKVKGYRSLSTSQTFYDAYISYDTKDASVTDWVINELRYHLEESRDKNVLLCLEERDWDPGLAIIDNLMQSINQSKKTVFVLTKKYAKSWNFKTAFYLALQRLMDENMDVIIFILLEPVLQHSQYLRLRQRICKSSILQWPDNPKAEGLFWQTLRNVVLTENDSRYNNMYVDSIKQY
Protocol: TLR activation induces NF-κB production and subsequent SEAP secretion, which is measured using HEK-Detection media (InvivoGen) containing a colorimetric substrate for SEAP (UV-Vis, 637 nm).
The experiments followed manufacturer protocol as follows: SEAP levels were measured via absorbance at 637 nm using HEK-Blue Detection cell culture medium (InvivoGen), which contains a SEAP-specific colorimetric substrate. Compound stock solutions were first diluted in sterile DMSO at a concentration of 10 mM. Lower concentrations were prepared by serial dilution of the initial 10 mM stock samples into sterile DMSO and these solutions (22 μL) were subsequently diluted into sterile H2O (198 μL) using a BioTek Precision XS pipetting system. HEK-Blue hTLR7, HEK-Blue hTLR8, Null 1−k, and Null 1 cell suspensions in sterile HEK-Blue Detection medium were prepared at a density of 220,000 cells per mL. Clear bottom, 96-well tissue culture treated plates (Corning) were seeded with hTLR7 and Null 1−k or hTLR8 and Null 1 cell suspensions (180 μL/well), after which 20 μL of the various sample concentrations in 10% v/v DMSO/H2O were added (20 μL) in quadruplicate wells to yield the desired testing concentration in 1% v/v DMSO cell suspension. Plates were incubated at 37° C. and 5% CO2 in the dark. Absorbance measurements were taken at 637 nm at 12 hours, 4 replicates per concentration point, per cell line (hTLR7, hTLR8, Null 1−k, Null 1). Three independent measurements on different days were performed for each analog.
Corresponding well absorbance values for each concentration tested were averaged with respect to days tested, and the average relative NF-κB induction (UV-Vis, 637 nm) of the null cell lines (Null 1-k or Null 1) were subtracted from the respective average TLR expressing cell line (hTLR7 or hTLR8) absorbance averages. […] The three independent, normalized averages for each analog were then pooled, and the data was fit using the Hill-Slope model (GraphPad Prism v7.0) using the non-linear fit from the [Agonist] vs. response—Variable Slope (four parameters) with a hill slope constrained to less than 3.

[1] = In vitro release kinetics (dialysis method); type: physicochemical; settings: PBS media, pH 7.4
Protocol: Solutions (1 mL) of free R848 in DMSO, R848/HA-Toco in water, R848-Toco in DMSO, and R848-Toco/HA-Toco in water, with a concentration of 1 mg/mL on R848 basis were dialyzed using SnakeSkin® dialysis tubing (MWCO […]) against 30 mL of phosphate buffered saline release medium (PBS, 10 mM sodium phosphate, 137 mM NaCl, pH 7.4) with 0.5% (w/v) polysorbate 80 at 37° C. At predetermined time points, 1 mL aliquots of release medium were sampled and replaced with an equal volume of fresh medium. The samples were kept frozen (−20° C.) until HPLC analysis.
Results: The in vitro release profiles of R848 and R848-Toco from the HA-Toco were studied using a dialysis method. […] The release of parent R848 formulated with HA-Toco was tested in PBS media, with free R848 dissolved in DMSO as a control. Similar release kinetics were observed whether R848 was formulated with HA-Toco or without ([…]), and in both conditions nearly 100% of the agonist was released over 24 h (FIG. 4A).

CCOCc1nc2c(N)nc3ccccc3c2n1CC(C)(C)O [Compound 2, resiquimod, reference compound]
agonist for TLR8 receptor (in words) (hTLR8): agonists
agonist released over 24 h [1]: ~100%
